{"source": "patent US20240252581A1", "about": "“COMPOSITIONS AND METHODS FOR TREATING RESPIRATORY DISTRESS” (S.I.S. SHULOV INNOVATIVE SCIENCE LTD., priority 2021, published 2024)", "experiment": "Oxygen saturation in mouse model of LPS-inflamed lungs (Rodent Pulse Oximeter)", "type": "in vivo, Balb/C female mice", "method": "Evaluation of the effect of ZEP3Na administration via inhalation on oxygen saturation in a mouse model of inflamed lungs by the lipopolysaccharides (LPS) was performed. Oxygen saturation testing was performed at several time points on mice that have been anesthetized by isoflurane. A sensor was attached to the hind foot of the mice and the percentage of oxygen in the blood was measured using the Rodent Pulse Oximeter instrument (Kent Scientific).\nFollowing LPS intratracheal instillation, a marked reduction in blood oxygen saturation levels was detected. ZEP3Na was then administered by inhalation at two doses 6 h and 14 h after LPS administration and the effect of ZEP3Na on blood oxygen saturation was monitored 0, 2, 6, 12, 24 and 48 hours following ZEP3Na administration. Saturation data was analyzed by ANOVA followed by Tukey-Kramer test. Significance level was defined as ∝=0.05.", "note": "Square brackets hold non-standard residues; d marks the D form. * marks the point of attachment. pGlu = O=C1CC[C@@H](C(=O)O)N1; Octanoyl = CCCCCCCC(=O)*", "data": [{"substance": "pGlu-Asn-Trp-Lys(Octanoyl)-OH ([pGlu]NWK(Octanoyl)-OH; SMILES CCCCCCCC(=O)NCCCC[C@H](NC(=O)[C@H](Cc1c[nH]c2ccccc12)NC(=O)[C@H](CC(N)=O)NC(=O)[C@@H]1CCC(=O)N1)C(=O)O) [ZEP3]", "values": [{"measurement": "time after administration over which increase in oxygen saturation was exerted", "setting": "acute inflamed lung model", "result": "at least 48 hours"}, {"measurement": "time following treatment at which increase in oxygen saturation is statistically significant", "setting": "administration by inhalation, LPS model", "result": 12, "unit": "h"}]}]}
